Tested on: PANK2 silenced human neuroblastoma IMR32 cells (PANK2−/−)
Experiment: Coenzyme A assay in PANK2 silenced cells (LC-MS quantification of free CoA)
Format: cell-based
Details: compound added twice (24 h + 24 h), relative to 0.1% DMSO controls
Experimental: A human neuroblastoma IMR32 cell line (ATCC) with stably PANK2 silencing was obtained by lentiviral-delivered small hairpin RNA and cultured in MEM (Invitrogen) supplemented with 10% fetal bovine serum, 2 mM glutamine, 1% penicillin-streptomycin, 1 mM sodium pyruvate, 1 mM non essential amino acids and 1.5 g/l sodium bicarbonate.
For lentiviral shRNA expression, Human Emryonic Kidney HEK-293T cells (ATCC) were transfected with the appropriate pGFP-Lenti-shRNA constructs and packaging plasmids according to manufacturer's protocol (Origene Technologies, Inc.). Four different gene-specific shRNA expression vectors designed against multiple splice variants of PANK2 (Gene ID 80025) were used for transfection. A non-silencing shRNA construct (scrambled shRNA) and an empty vector expressing GFP alone were used as negative controls. The GFP tag subcloned into the lentiviral vectors was used to monitor the transfection efficiency.
IMR32 cells were plated on 150 cm dishes 48 h before transduction with lentiviral particles.
Three days after transduction medium was removed and replaced with fresh medium containing […] puromycin. Medium was replaced every 48 h. Levels of PANK2 expression on selected clones was assessed by Western Blot analysis.
To quantify CoA, PANK2^−/− IMR32 cells were plated on 12-well culture plates (Corning) at a density of 0.2×10^6 cells per well. After 72 h, compounds were freshly dissolved in DMSO and added to the culture medium to yield a final solvent concentration of 0.1% (v/v). Controls with medium containing 0.1% DMSO without test compounds were also included in each plate. Compound treated cells were incubated for 24 h at 37° C. Treatment was repeated after 24 h with newly dissolved compound and cells were further incubated at 37° C. for additional 24 h. Before LC-MS analysis of CoA levels, cells were harvested, counted, and collected in a 15 ml falcon tube and centrifuged at 200×g for 5 min at 4° C. Supernatant was removed and cell pellet was washed in 10 ml of ice-cold PBS. To further confirm that the numbers of cells in each sample were equivalent, an equal fraction of pellet was collected from each sample and subjected to protein determination analysis. After centrifugation and supernatant removal, the cell pellet was rapidly frozen in Liquid Nitrogen and stored at −80° C. until analysis.
Intracellular CoA levels were calculated considering an intracellular volume of 1 million cells=2 μl.
The 1×10^6 cellular pellet was extracted with 120 μl of aqueous 20% TFA. This solution was stirred for 2 min, sonicated in ultrasonic bath for 2 min, then stirred again for 1 min, and centrifuged for 15 min at 14000 g and at 4° C.
100 μL samples of supernatant were dried under N2 at 20° C. in the dark.
Samples were re-dissolved in 100 μl of 10 mM NH4^+ AcO^− buffer pH 5.1+IS (Dextrorphan 50 ng/ml), stirred for 2 min, sonicated in ultrasonic bath for 1 min, then stirred again for 1 min, and injected into LC-MS.
LC-MS/MS was performed using an Agilent HPLC (1100 Series, USA). The LC system was interfaced with an API-4000 Q-Trap triple quadrupole mass spectrometer (AB Sciex, Toronto, Canada) equipped with a TurbolonSpray ionization source operating in positive ion mode. Analyst™ software version 1.6 (AB Sciex, Toronto, Canada) was used for data acquisition and processing. CoA was separated using a Luna C18 column (2.0×50 mm; 5 μm particle size), column at 25° C. and flow rate of 0.2 ml/min. Injection volume was 15 μl. The mobile phases consisted of water containing 10 mM ammonium acetate pH 7 (mobile phase A) and MeCN-2-propanol 9:1 (mobile phase B). Elution was performed using a gradient starting at 2% B, holding at 2% B until 0.1 min, increasing to 98% B at 3.2 min, holding at 98% B until 4.5 min, returning to 2% B at 4.6 min and holding at 2% B until 7.5 min. Precursor ions and MRM transitions used were: CoA m/z 768.1→261.6 and 768.1→136.1. […]

Row | SMILES | PANK2−/− CoA (Fold Increase): fold increase in Coenzyme A (CoA) levels relative to controls [Fold Increase]
1 | COC(=O)CCNC(=O)[C@@H]1O[P@@](=O)(OCOC(=O)c2scnc2C)OCC1(C)C (single isomer, unassigned) [2-149] | 24.48
2 | COC(=O)CCNC(=O)[C@@H]1O[P@](=O)(OCOC(=O)c2scnc2C)OCC1(C)C (single isomer, unassigned) [2-150] | 43.4
3 | COC(=O)CCNC(=O)[C@@H]1O[P@@](=O)(OCOC(=O)c2cnco2)OCC1(C)C (single isomer, unassigned) [2-151] | 17.56
4 | COC(=O)CCNC(=O)[C@@H]1O[P@@](=O)(Oc2ccc(C[C@H](N)C(=O)OC)cc2)OCC1(C)C (single isomer, unassigned) [2-162] | 9.73
5 | COC(=O)CCNC(=O)[C@@H]1O[P@@](=O)(Oc2ccc(C[C@H](NC(=O)OC(C)(C)C)C(=O)OC)cc2)OCC1(C)C (single isomer, unassigned) [2-204] | 5.75
6 | COC(=O)CCNC(=O)[C@@H]1O[P@](=O)(Oc2ccc([N+](=O)[O-])cc2)OCC1(C)C (single isomer, unassigned) [Compound No. 2-120] | 21.05
7 | COC(=O)CCNC(=O)[C@@H]1O[P@](=O)(Oc2ccc(S(F)(F)(F)(F)F)cc2)OCC1(C)C (single isomer, unassigned) [Compound No. 2-125] | 34.02
8 | CC(C)(C)C(=O)OCO[P@@]1(=O)OCC(C)(C)[C@H](C(=O)NCCC(=O)OCCC#N)O1 (single isomer, unassigned) [Compound No. 77] | 93.86
9 | CCOC(=O)CCNC(=O)[C@@H]1OP(=O)(OCOC(=O)C(C)(C)C)OCC1(C)C (single isomer, unassigned) [Compound No. 107] | 85.06
10 | COC(=O)[C@H](C)N[P@@]1(=O)OCC(C)(C)[C@H](C(=O)NCCC(=O)OCc2ccncc2)O1 (single isomer, unassigned) [compound 18, methyl ((2R,4R)-5,5-dimethyl-2-oxido-4-((3-oxo-3-(pyridin-4-ylmethoxy)propyl)carbamoyl)-1,3,2-dioxaphosphinan-2-yl)-L-alaninate or methyl ((2S,4R)-5,5-dimethyl-2-oxido-4-((3-oxo-3-(pyridin-4-ylmethoxy)propyl)carbamoyl)-1,3,2-dioxaphosphinan-2-yl)-L-alaninate] | 2.06
11 | COC(=O)CCNC(=O)[C@@H]1OP(=O)(N2CCCCC2)OCC1(C)C (stereo in doubt) [compound 133, methyl 3-((2R,4R)-5,5-dimethyl-2-oxido-2-(piperidin-1-yl)-1,3,2-dioxaphosphinane-4-carboxamido)propanoate] | 1.45
12 | COC(=O)CCNC(=O)[C@@H]1O[P@@](=O)(N[C@@H](C)C(=O)OC)OCC1(C)C [1-52, methyl 3-((2R,4R)-2-(((S)-1-methoxy-1-oxopropan-2-yl)amino)-5,5-dimethyl-2-oxido-3,3,2-dioxaphosphinane-4-carboxamido)propanoate] | 2.09
13 | COC(=O)CCNC(=O)[C@@H]1O[P@](=O)(N[C@@H](C)C(=O)OC)OCC1(C)C [1-53, methyl 3-((2S,4R)-2-(((S)-1-methoxy-1-oxopropan-2-yl)amino)-5,5-dimethyl-2-oxido-1,3,2-dioxaphosphinane-4-carboxamido)propanoate] | 2.37
14 | CO[13C](=O)[13CH2][13CH2][15NH]C(=O)[C@@H]1OP(=O)(Oc2ccccc2)OCC1(C)C (stereo partly drawn) [2-109, methyl 3-((4R)-5,5-dimethyl-2-oxido-2-phenoxy-1,3,2-dioxaphosphinane-4-carboxamido-15N)propanoate-1,2,3-13C3] | 2.04
15 | CC(C)OC(=O)CCNC(=O)[C@@H]1OP(=O)(O)OCC1(C)C [2-110, isopropyl 3-((4R)-2-hydroxy-5,5-dimethyl-2-oxido-1,3,2-dioxaphosphinane-4-carboxamido)propanoate] | 2.17
16 | COC(=O)CCNC(=O)[C@@H]1OP(=O)(OCCN2CCOCC2=O)OCC1(C)C (stereo partly drawn) [2-114, methyl 3-((4R)-5,5-dimethyl-2-oxido-2-(2-(3-oxomorpholino)ethoxy)-1,3,2-dioxaphosphinane-4-carboxamido)propanoate] | 1.87
17 | COC(=O)CCNC(=O)[C@@H]1O[P@@](=O)(OCCNC(C)=O)OCC1(C)C [2-115, methyl 3-((2R,4R)-2-(2-acetamidoethoxy)-5,5-dimethyl-2-oxido-1,3,2-dioxaphosphinane-4-carboxamido)propanoate] | 1.6
18 | COC(=O)CCNC(=O)[C@@H]1O[P@@](=O)(Oc2ccc(C#N)cc2)OCC1(C)C [2-116, methyl 3-((2S,4R)-2-(1-cyanophenoxy)-5,5-dimethyl-2-oxido-1,3,2-dioxaphosphinane-4-carboxamido)propanoate] | 0.95
19 | COC(=O)CCNC(=O)[C@@H]1O[P@@](=O)(Oc2ccccc2C(=O)OC)OCC1(C)C [2-117, methyl 2-(((2S,4R)-4-((3-methoxy-3-oxopropyl)carbamoyl)-5,5-dimethyl-2-oxido-1,3,2-dioxaphosphinan-2-yl)oxy)benzoate] | 1.11
20 | COC(=O)CCNC(=O)[C@@H]1O[P@@](=O)(Oc2ccc([N+](=O)[O-])cc2)OCC1(C)C [2-121, methyl 3-((2S,4R)-5,5-dimethyl-2-(4-nitrophenoxy)-2-oxido-1,3,2-dioxaphosphinane-4-carboxamido)propanoate] | 1.59
21 | COC(=O)CCNC(=O)[C@@H]1OP(=O)(Oc2ccc(C(F)(F)F)nc2)OCC1(C)C (stereo partly drawn) [2-122, methyl 3-((4R)-5,5-dimethyl-2-oxido-2-((6-(trifluoromethyl)pyridin-3-yl)oxy)-1,3,2-dioxaphosphinane-4-carboxamido)propanoate] | 1.21
22 | COC(=O)CCNC(=O)[C@@H]1O[P@](=O)(OCC(F)(F)F)OCC1(C)C [2-123, methyl 3-((2S,4R)-5,5-dimethyl-2-oxido-2-(2,2,2-trifluoroethoxy)-1,3,2-dioxaphosphinane-4-carboxamido)propanoate] | 1.46
23 | COC(=O)CCNC(=O)[C@@H]1O[P@@](=O)(Oc2ccc(S(F)(F)(F)(F)F)cc2)OCC1(C)C [2-124, methyl 3-((2S,4R)-5,5-dimethyl-2-oxido-2-(4-(pentafluoro-16-sulfanyl)phenoxy)-1,3,2-dioxaphosphinane-4-carboxamido)propanoate] | 1.12

Reference: US10364263B2, “Cyclic phosphates and cyclic phosphoramidates for the treatment of neurologic disorders” (Retrophin, Inc., priority 2015, dated 2019)
